Data as given in EPA's ToxValDB 9.5 (doi:10.2903/j.efsa.2014.3817).

What was measured:
Apis mellifera = conditions: acute, mortality
Oryctolagus sp. = conditions: reproduction developmental; histopathology: nonneoplastic
Zea sp. = conditions: not reported; seedling emergence
Colinus virginianus = conditions: reproduction developmental
Oncorhynchus mykiss = conditions: chronic/long-term; duration: 90 days; other
Anas platyrhynchos = conditions: acute; oral; unspecified; mortality
Folsomia candida = conditions: chronic/long-term
Daphnia magna = conditions: chronic/long-term; duration: 21 days; reproduction
Canidae = conditions: chronic; duration: 1 years; oral; Dog Other; clinical chemistry
Typhlodromus pyri = assay: LR50; higher = less toxic; conditions: not reported; mortality
Aphidius rhopalosiphi = assay: LR50; higher = less toxic; conditions: not reported; mortality

CC1=NNC(=O)N(/N=C/c2cccnc2)C1 [Pymetrozine]
LC50 (Tagia sp.; acute, duration: 14 days, mortality): 1100 mg/kg | NOEC (Tagia sp.; chronic/long-term, duration: 8 weeks): 0.00139 g/ha | LD50 (Apis mellifera; dermal): > 100 µg/piece | LD50 (Apis mellifera; oral, unspecified): > 62.7 µg/piece | NOAEL (Oryctolagus sp.): 10 mg/kg-day | NOEC (Zea sp.): 150 g/ha | NOEL (Colinus virginianus): 21.8 mg/kg-day | NOEC (Oncorhynchus mykiss): 11.7 mg/L | LD50 (Anas platyrhynchos): ≥ 2000 mg/kg-day | NOEC (Folsomia candida): 1000 mg/kg | NOEC (Daphnia magna): 0.025 mg/L | NOAEL (Canidae): 0.57 mg/kg-day | LD50 (Rattus norvegicus; acute, mortality): 3590 mg/kg-day | NOAEL (Rattus norvegicus; reproduction developmental, reproduction): ≥ 110 mg/kg-day | NOAEL (Rattus norvegicus; subchronic, duration: 90 days, oral, clinical chemistry): 33 mg/kg-day | LR50 (Typhlodromus pyri): > 1200 g/ha | LR50 (Aphidius rhopalosiphi): 75 g/ha
